Literature values as cited in patent US9839606B2, “Formulation for treatment of hairs” (OSMA Cosmetics & Laboratories AG, priority 2013, dated 2017).

Columns and labels:
[1] = system: human dermal papilla cells (DPCs)

Substance: epigallocatechin-3-gallate [EGCG]
- hair growth in hair follicles ex vivo culture (hair follicles): promoted hair growth
- proliferation of cultured DPCs [1]: promoted
